This is an account of results in patent publication US20180169117A1, “PHARMACEUTICAL FORMULATION COMPRISING A SUBSTITUTED PHENYL - (1,3-DIHYDRO-ISOINDOL-2-YL) - METHANONE” (OTSUKA PHARMACEUTICAL CO., LTD., priority 2014, published 2018).

The test system of one data set is MM-1 cells. To be noted: 17-AAG treated MM-1 cells; Mitsiades et al. 2006; cited from earlier work.
Data set [1] has as its system Bortezomib refractory multiple myeloma cell lines. The conditions noted are these: Mitsiades et al. 2006; cited from earlier work.
Data set [2] is described as follows: Solubility in deionised water, acetate, succinate and citrate buffers (Example 5). In kind it is physicochemical. To be noted: thermodynamic from solid, read-out: Solubility L-lactate salt of compound of formula (I). Here is the method: (§1) Aliquots of 1 g of the L-lactate salt of the compound of formula (I) were weighed into individual 20 ml scintillation vials and 10 ml of each buffer was added to a vial. An additional sample was prepared in deionised water. Samples were covered in aluminium foil to protect from light and mixed using a magnetic stirrer overnight.
(§2) The appearance of each sample was recorded. Samples were transferred to centrifuge tubes and centrifuged at 3500rpm for 15 minutes. The samples prepared using the 200 mM buffers were visually free of undissolved material, but were centrifuged in order to make sure that all samples were treated the same. The supernatants were retained for determination of compound of formula (I) by UV and pH measurement.
(§3) Assay by UV: A calibration curve was prepared using the L-lactate salt of the compound of formula (I) dissolved in deionised water and covering the range 0 to 0.10 mg/ml. Absorbance was determined at 286 nm. Samples were diluted as necessary using deionised water and absorbance determined at 286 nm versus a blank. The content of the compound of formula (I) was determined using the standard curve. All UV readings were taken in duplicate.
In a manner analogous to Example 3, formulations were prepared of the L-lactate salt of the compound of formula (I) with acetate, succinate and citrate buffers at different concentrations and at different pH. As shown in the table below, neither the acetate nor citrate buffers were as useful as the phosphate buffer formulation of Example 3, but the succinate buffer gave good L-lactate salt solubility.

A further data set is described as follows: physchem. In kind it is physicochemical. The conditions noted are these: for solubility thermodynamic / solubility: aqueous buffer, thermodynamic from solid, read-out: L-Lactate Salt of Compound of Formula (I) Concentration. Here is the method: Buffers were prepared using monobasic and dibasic salts of sodium phosphate in order to achieve the correct buffer concentrations and pH as follows:
The pH of each buffer was the target pH±0.05. Minor adjustments with small amounts of dilute sodium hydroxide were made to both of the 200 mM buffers to meet this criterion.
as §1, §2, §3

Data set [3] is described as follows: Effect of surfactant (polysorbate 80, Tween) on solubility in phosphate buffer pH 7.2 (Example 6). In kind it is physicochemical. To be noted: for increase in solubility on addition of Tween: physiological pH, 1-8 (w/v) Tween versus no Tween; for solubility: sodium phosphate buffer, 200 mM phosphate, read-out: Solubility of L-lactate salt of compound of formula (I). The method, then:
Solutions of sodium phosphate buffer at a pH of 7.2 were prepared with and without polysorbate 80 (Tween) and the solubilities of the L-lactate salt of the compound of formula (I) were determined.

For a further data set, the system named is K562 cells. The conditions noted are these: Gone et al. 2002; cited from earlier work.
In data set [4] the test system is patients with advanced solid tumours. The data set can be described thus: Phase I study, Two-Consecutive Day (QDx2) dosing schedule. In kind it is in vivo, human.
The test system of data set [5] is vemurafenib sensitive and resistant models of melanoma. To be noted: Rodriguez-Lopez et al., AACR 2012; cited from earlier work.
Data set [6] concerns solid tumours refractory to standard therapy. To be noted: cited from earlier work.
Another data set relates to HSP90. Briefly: Hsp90 inhibition (statement). Type of data set: biochemical. The conditions noted are these: no value.
In a further data set the test system is refractory solid tumours. To be noted: including three GIST patients; Mahadevan et al. 2012; cited from earlier work.

SMILES strings stand for the structures. Like-named read-outs stand apart in the source and are kept apart here.

`C=CCNC1=C2C[C@@H](C)C[C@H](OC)[C@H](O)[C@@H](C)/C=C(\C)[C@H](OC(N)=O)[C@@H](OC)/C=C\C=C(/C)C(=O)NC(=CC1=O)C2=O` [17-AAG]: the “cell surface levels of IGF-1R and IL-6R” value in the data set with MM-1 cells is recorded as “diminished”. For the same compound, the proliferation entry in data set [1] is reported as “potently inhibits proliferation”.
Take `CC(C)c1cc(C(=O)N2Cc3ccc(CN4CCN(C)CC4)cc3C2)c(O)cc1O.C[C@H](O)C(=O)O` [(2,4-Dihydroxy-5-isopropyl-phenyl)-[5-(4-methyl-piperazin-1-ylmethyl)-1,3-dihydro-isoindol-2-yl]-methanone L-lactate salt]: the solubility came out at 24.4 mg/mL in [2] (acetate buffer, aqueous buffer, 50 mM Acetate pH 5.5, pH 4.87); 19.1 mg/mL in data set [2] (acetate buffer, aqueous buffer, 50 mM Acetate pH 6.0, pH 5.03); 85.6 mg/mL in data set [2] (citrate buffer, aqueous buffer, 50 mM Citrate pH 5.5, pH 5.23); 83.9 mg/mL in [2] (citrate buffer, aqueous buffer, 50 mM Citrate pH 6.0, pH 5.55); 78.3 mg/mL in [2] (succinate buffer, aqueous buffer, 50 mM Succinate pH 5.5, pH 5.38); 78.3 mg/mL in data set [2] (succinate buffer, aqueous buffer, 50 mM Succinate pH 6.0, pH 5.69). Further, the solubility in data set [2] (succinate buffer, aqueous buffer, 100 mM Succinate pH 6.0, pH 5.76) is 89.9 mg/mL; in data set [2] (succinate buffer, pH 5.3, aqueous buffer, 100 mM Succinate pH 5.5, pH 5.30), 89.2 mg/mL; in data set [2] (Deionised water, pH 5.52), 59.5 mg/mL; in the data set “physchem” (sodium phosphate buffer 200 mM/pH 5.0 (fifth line of table), pH of supernatant 4.99), at least 95.7 mg/mL; in “physchem” (sodium phosphate buffer 200 mM/pH 5.5, pH of supernatant 5.08) it was at least 94.8 mg/mL; in [3] (aqueous buffer, pH 7.2, Tween 0 % (w/v)) it was 21 mg/mL. Besides, the solubility in data set [3] (aqueous with cosolvent or surfactant or cyclodextrin, pH 7.2, Tween 1-8 % (w/v)) was 33 to 34 mg/mL. In addition, the solubility thermodynamic in “physchem” (sodium phosphate buffer 50 mM/pH 5.0, pH of supernatant 5.13) came to 77.3 mg/mL; in the data set “physchem” (sodium phosphate buffer 50 mM/pH 5.5, pH of supernatant 5.18), 75.9 mg/mL. The “L-Lactate Salt of Compound of Formula (I) Concentration” value was 86.3 mg/mL in “physchem” (sodium phosphate buffer 100 mM/pH 5.5, pH of supernatant 5.10) and 89.0 mg/mL in “physchem” (sodium phosphate buffer 200 mM/pH 5.0 (third line of table), pH of supernatant 5.05). For the same compound, the “increase in solubility on addition of Tween” value in [3] was 1.5 fold; in data set [3] (listed as lactate salt of the compound of formula (I)), “approximately 1.5 fold”.
`Cc1ccc(NC(=O)c2ccc(CN3CCN(C)CC3)cc2)cc1Nc1nccc(-c2cccnc2)n1` [Gleevec]: the apoptosis result with K562 cells is “induces apoptosis”.
As to `CC(C)c1cc(C(=O)N2Cc3ccc(CN4CCN(C)CC4)cc3C2)c(O)cc1O` [compound of formula (I), (2,4-Dihydroxy-5-isopropyl-phenyl)-[5-(4-methyl-piperazin-1-ylmethyl)-1,3-dihydro-isoindol-2-yl]-methanone], in data set [4], the tolerability result is on record as “well tolerated”. In data set [5], the “efficacy in melanoma models” value is recorded as “effective”. In addition, in data set [6] (GIST patient, 220 mg/m^2 weekly, before and after treatment, Shapiro 2011), the “PET scan, metabolic activity of the tumour” value was “substantial reduction in the metabolic activity of the tumour”. Also, the “stable disease for beyond 2 cycles of treatment” value in data set [6] (twice weekly schedule, further patients, Shapiro et al. 2010) was “five of the original twenty one patients”. Moreover, the “stable disease for at least six months” value in [6] (twice weekly schedule, one melanoma, one thyroid cancer, Shapiro et al. 2010) is “two of the original twenty one patients”. In addition, the HSP90 inhibition entry with HSP90 is “potent HSP90 inhibitor”. The “objective and durable partial response and stable disease” value in the data set on refractory solid tumours is on record as “five patients”.
